# Measured values from US20240033319A1, “PEPTIDES FOR PREVENTING OR TREATING HEART AND BLOOD VESSEL DISEASES” (RD NÉPHROLOGIE, priority 2020, published 2024).
# No end group written: not given here.
# Tests used:
# [1] = test system: human aortic smooth muscle cells (hAoSMCs); assay: Calcification of cultivated human aortic smooth muscle cells in calcifying medium (Ca2+ content); format: cell-based; conditions: for effect on calcium content / calcification of hAoSMCs: peptide fragment 100 nmol L^−1, 7 days
# Description: Cell culture and calcification induction in human aortic smooth muscle cells: Human aortic smooth muscle cells (hAoSMCs) (Promocell, Heidelberg, Germany) were cultivated in smooth muscle cell medium (Promocell, Heidelberg, Germany). The hAoSMCs were seeded in 48 well plates (5×10^3 cells/well) at 80% confluence. Dulbecco's modified Eagle's medium (DMEM) containing 25 mmol L^−1 glucose supplemented with 2.5% fetal calf serum and 2.8 mmol L^−1 phosphate were used to induce calcification (calcifying medium, CM). The calcifying medium was supplemented with CBF (max. concentration 100 pmol L^−1) or CBF fragments (100 nmol L^−1). As reference medium, DMEM containing 25 mmol L^−1 glucose supplemented with 2.5% fetal calf serum and 0.9 mmol L^−1 phosphate were used (non-calcifying medium, NCM). The hAoSMCs were incubated for 7 days while the incubation medium was replaced after 48 h.
# Measurement of calcium content: For determination of calcium content, cells or aortic rings were washed 3 times with PBS without calcium. Aortic rings were dried and weighed. Dried aortic rings and cells were decalcified with 0.1 M HCl for 24 h, and the calcium content in the supernatant was determined by the o-cresolphthalein complexone method (Clinical Chemistry Assay Kit/Calcium, County Antrim, UK) according to the manufacturer's protocol. Cell content was extracted in 0.1 M NaOH 0.1% sodium dodecyl sulfate (SDS), and protein content was measured by the bicinchoninic acid (BCA) protein assay method (Thermo Fisher Scientific, Germany). The calcium content was normalized to total protein for cells or dry weight for aortic rings.
# VDN rats = assay: VDN (vitamin D3 plus nicotine) rat model of elastocalcinosis: aortic calcium, von Kossa staining, pulse pressure; format: in vivo; conditions: for pulse pressure (Example 3 peptide comparison) / calcified surface of the aortas, Von Kossa staining (Example 3 peptide comparison) / calcium content of the aortas (Example 3 peptide comparison): VDN animals, versus control animals; for pulse pressure (Example 3 peptide comparison): FIG. 5a; for calcified surface of the aortas, Von Kossa staining (Example 3 peptide comparison): FIG. 5b; for calcium content of the aortas (Example 3 peptide comparison): FIG. 5c
# Description: Ex vivo and calcification of rat aortic rings: The thoracic aorta of 8-13 weeks old male Wistar-rats were gently dissected and were cut in 3-4 mm segments. The endothelial layer of the aortic ring was manually damaged by scratching using a conventional pipette tip. The aortic rings were incubated with DMEM containing 25 mmol L^−1 glucose supplemented with 2.5% fetal calf serum and 2.8 mmol L^−1 phosphate to induce calcification. The calcification medium was supplemented with CBF (max. concentration 1 μmol L^−1) or CBF fragments (100 nmol L^−1). As reference medium, DMEM containing 25 mmol L^−1 glucose supplemented with 2.5% fetal calf serum and 0.9 mmol L^−1 phosphate were used (non-calcifying medium, NCM). The aortic rings were incubated for 7 days while the medium was replaced after 48 h. Effect of CBF in an animal model with enhanced arterial calcification: An animal model of elastocalcinosis with proven increased arterial calcification (Niederhoffer et al., “Aortic calcification produced by vitmin D3 plus nicotine”, J. Vasc. Res. 34, 386-98, 1997) was chosen to assay the effects of CBF in vivo. Animal experiments were approved by the regional ethics committee “Comité d'éthique pour I'expérimentation animale Languedoc Roussillon N°36”, with the agreement number APAFIS 2018072715539434#17270v4, and conformed to the Guide for the Care and Use of Laboratory Animals, NIH (National Academies Press US, 8th edition, 2011). Three groups of 6 weeks old Wistar rats (Charles River Laboratories, L'Arbresle, France) were given a regular rat chow (A04, Safe, Villemoisson-sur-Orge, France) and spring water (Mont Roucous®, France; calcium 60 μM) ad libitum for one week before experiments. Two groups received CBF (31 μg kg^−1 per day) or its vehicle (saline) infused through an osmotic pump (Alzet 2004, Charles River, France) implanted under the skin. CBF treatment was initiated 3 or 4 days before induction of elastocalcinosis (vitamin D3 plus nicotine, or VDN rats) with a single injection of vitamin D3 (300,000 IU kg^−1, i.m.) and two gavages of nicotine (25 mg kg^−1, 5 ml kg^−1) on the same day, as previously described ^47.
# Untreated rats served as control rats (sham operation and saline administration). Four weeks later, rats were anaesthetized (ketamine-xylazine), and a catheter was inserted into the right carotid artery for blood pressure measurement. After 10-15 min of equilibration, systolic, diastolic, mean arterial, and pulse (systolic-diastolic) pressures were determined. The aorta was gently dissected, adventitial fat removed, and cut into segments (3-4 mm) for further analysis.
# Histological calcification staining and immunofluorescence staining: Aortic rings were placed in 1 ml of 4% formaldehyde for 1 h to prepare for histological and immunohistochemical staining. The rings were dehydrated and embedded in paraffin and 5 μm slices were prepared by a microtome (Leica RM 2250, Wetzlar, Germany). The slices were placed on a glass slide, deparaffinized in xylene, and dehydrated in decreasingly concentrated sopropanol solutions before staining. Von Kossa staining was performed to visualize calcified areas of the aortic rings. The aortic ring slides were incubated with 5% silver nitrate in the presence of UV light at 405 nm for 1 h, washed three times with double-distilled water (ddH2O), incubated in the presence of 5% sodium thiosulfate in water for 1 min, and washed three times with ddH2O. Next, nuclear fast red (Merck; Darmstadt, Germany) was added to the slides for 5 min. The slides were then rinsed, dehydrated with ethanol, incubated for 5 min in xylol, and covered with Vitro-Clud (R. Langenbrinck; Emmendingen, Germany). For immunohistochemical analyses, sections were blocked with blocking solution (1% bovine serum albumin (BSA)) for 30 min at room temperature. […]
# rat aortic rings = conditions: for effect on calcium content / calcification of rat aortic rings: peptide fragment 100 nmol L^−1, 7 days
Substance,effect on calcium content / calcification of hAoSMCs [1],effect on calcium content / calcification of rat aortic rings (rat aortic rings; calcifying medium),also measured
CBF2: CBF fragment comprising the amino acids 11-19 (RDSSMKLSF; listed as Homo sapiens),no significant effect,no significant effect,"pulse pressure (Example 3 peptide comparison) (VDN rats): no effect; calcified surface of the aortas, Von Kossa staining (Example 3 peptide comparison) (VDN rats): no effect; calcium content of the aortas (Example 3 peptide comparison) (VDN rats): no effect"
EEDN (listed as Homo sapiens) [CBF 07-10],inhibitory effect on vascular calcification,inhibitory effect on vascular calcification,
EEED (listed as Homo sapiens) [CBF 06-09],strongest inhibition,strongest inhibition,
EEEDN (listed as Homo sapiens) [CBF 06-10],significant reduction of calcification,significant reduction of calcification,
EEEDN RDSSM (EEEDNRDSSM; listed as Homo sapiens) [CBF fragment 06-15],no significant effect,no significant effect,
EEEE (listed as Homo sapiens) [CBF 05-08],strongest inhibition,strongest inhibition,
EGQE (listed as Homo sapiens) [CBF 02-05],inhibitory effect on vascular calcification,inhibitory effect on vascular calcification,
GQEE (listed as Homo sapiens) [CBF 03-06],inhibitory effect on vascular calcification,inhibitory effect on vascular calcification,
LEGQ (listed as Homo sapiens) [CBF 01-04],inhibitory effect on vascular calcification,inhibitory effect on vascular calcification,
LEGQE (listed as Homo sapiens) [CBF 01-05],significant reduction of calcification,significant reduction of calcification,
LEGQE EEEDN (LEGQEEEEDN; listed as Homo sapiens) [CBF1],significantly decreased the calcium content,significantly decreased the calcium content,"calcified surface of the aortas, Von Kossa staining (Example 3 peptide comparison) (VDN rats): even more pronounced decrease; calcium content of the aortas (Example 3 peptide comparison) (VDN rats): even more pronounced decrease"
"LEGQEEEEDNRDSSMKLSF [CBF, LEGQE EEEDN RDSSM KLSF]",,,"threshold concentration for decreasing calcification in hAoSMCs ([1]; hAoSMCs, 7 days, Ca2+ content): ~1 amol L^−1; Ca2+ content in vessels of treated VDN rats compared to untreated animals (VDN rats; 31 μg kg^−1 per day via osmotic pump for 4 weeks): significantly reduced; pulse pressure (Example 3 peptide comparison) (VDN rats): significantly lower pulse pressure; calcified surface of the aortas, Von Kossa staining (Example 3 peptide comparison) (VDN rats): decreased calcified surface; calcium content of the aortas (Example 3 peptide comparison) (VDN rats): decrease in calcium content; reduction of pulse pressure (VDN rats; VDN rats, 31 μg kg^−1 per day for 4 weeks): 63%; decrease of calcified surface of aorta (von Kossa staining) (VDN rats; VDN rats, 31 μg kg^−1 per day via osmotic pump for 4 weeks): 70%; pulse pressure (VDN rats; VDN rats, chronic treatment 4 weeks, untreated VDN 81±6): 53±3; arterial pressure in VDN animals (VDN rats; chronic treatment in vivo, 4 weeks): significant decrease; EC50 (rat aortic rings): ~0.1 nM; threshold concentration for reducing calcification of rat aortic rings (rat aortic rings; aortic rings ex vivo, calcifying medium, 7 days, Ca content): ~0.01 nmol/L; reduction in the calcified area of aortic rings (von Kossa staining) (rat aortic rings; calcifying medium, CBF 100 nM): 40%"
QEEE (listed as Homo sapiens) [CBF 04-07],strongest inhibition,strongest inhibition,
